Measurements taken from patent US8901118B2, “Compounds and methods for kinase modulation, and indications therefor” (Plexxikon Inc., priority 2010, dated 2014).

Legend:
[1] = target: TrkA kinase (Homo sapiens, UniProt P04629); assay: TrkA kinase biochemical activity assay (AlphaScreen); settings: 100 μM ATP; read-out: Biochemical Inhibition IC50 TrkA
Procedure, shortened: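 IC50 values come from AlphaScreen PY20/streptavidin bead signal versus compound concentration. Kinase reaction: 1 ng/well TrkA, 100 μM ATP, 30 nM biotin-(E4Y)10 substrate, Mn2+-containing Hepes buffer pH 7.5, 5% DMSO, 40 min, room temperature; TrkC assayed by the same approach.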

[2] = target: T1, BCR-NTRK3 BaF3 cells (Homo sapiens, UniProt Q16288); assay: BaF3 BCR-NTRK3 cell proliferation assay (ATPlite); format: cell-based; settings: read-out: Inhibition of Cell Proliferation IC50, BCR/BaF3 TrkC
T1 construct: fused on or other part: P11274 (Breakpoint cluster region protein)
T1 sequence (Q16288 whole entry, the tested form may be a part): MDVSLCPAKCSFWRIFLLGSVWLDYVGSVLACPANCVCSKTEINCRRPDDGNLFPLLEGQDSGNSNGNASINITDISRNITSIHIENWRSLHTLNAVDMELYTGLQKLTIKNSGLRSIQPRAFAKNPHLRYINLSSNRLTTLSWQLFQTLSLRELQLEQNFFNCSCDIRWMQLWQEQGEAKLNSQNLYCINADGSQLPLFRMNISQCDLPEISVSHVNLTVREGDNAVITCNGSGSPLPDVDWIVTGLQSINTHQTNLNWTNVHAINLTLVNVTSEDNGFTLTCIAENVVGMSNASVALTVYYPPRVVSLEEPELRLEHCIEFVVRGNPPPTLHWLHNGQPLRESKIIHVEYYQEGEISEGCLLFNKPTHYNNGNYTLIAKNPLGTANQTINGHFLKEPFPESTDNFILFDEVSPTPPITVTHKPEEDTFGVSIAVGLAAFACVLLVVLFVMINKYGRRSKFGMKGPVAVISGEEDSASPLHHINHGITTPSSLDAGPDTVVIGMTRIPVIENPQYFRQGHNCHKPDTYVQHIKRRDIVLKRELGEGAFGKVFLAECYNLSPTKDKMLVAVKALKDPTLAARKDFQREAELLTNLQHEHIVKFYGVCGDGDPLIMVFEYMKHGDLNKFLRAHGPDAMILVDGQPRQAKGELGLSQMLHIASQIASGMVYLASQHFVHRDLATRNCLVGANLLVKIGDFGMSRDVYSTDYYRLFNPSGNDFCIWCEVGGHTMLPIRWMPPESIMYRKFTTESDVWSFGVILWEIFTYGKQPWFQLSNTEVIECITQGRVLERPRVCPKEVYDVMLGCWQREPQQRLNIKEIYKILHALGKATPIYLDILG
Procedure, shortened: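 Proliferation was run for 3 days at 37 °C against 8-point 1:3 titrations with 10 μM as the top final concentration. Seeding was 10,000 cells/well for BaF3 BCR-fusion lines, grown without IL-3, and 25,000 cells/well for MV-4-11. IC50 was derived from ATPlite luminescence read as cell number.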

TrkA kinase, sequence (P04629 33-796): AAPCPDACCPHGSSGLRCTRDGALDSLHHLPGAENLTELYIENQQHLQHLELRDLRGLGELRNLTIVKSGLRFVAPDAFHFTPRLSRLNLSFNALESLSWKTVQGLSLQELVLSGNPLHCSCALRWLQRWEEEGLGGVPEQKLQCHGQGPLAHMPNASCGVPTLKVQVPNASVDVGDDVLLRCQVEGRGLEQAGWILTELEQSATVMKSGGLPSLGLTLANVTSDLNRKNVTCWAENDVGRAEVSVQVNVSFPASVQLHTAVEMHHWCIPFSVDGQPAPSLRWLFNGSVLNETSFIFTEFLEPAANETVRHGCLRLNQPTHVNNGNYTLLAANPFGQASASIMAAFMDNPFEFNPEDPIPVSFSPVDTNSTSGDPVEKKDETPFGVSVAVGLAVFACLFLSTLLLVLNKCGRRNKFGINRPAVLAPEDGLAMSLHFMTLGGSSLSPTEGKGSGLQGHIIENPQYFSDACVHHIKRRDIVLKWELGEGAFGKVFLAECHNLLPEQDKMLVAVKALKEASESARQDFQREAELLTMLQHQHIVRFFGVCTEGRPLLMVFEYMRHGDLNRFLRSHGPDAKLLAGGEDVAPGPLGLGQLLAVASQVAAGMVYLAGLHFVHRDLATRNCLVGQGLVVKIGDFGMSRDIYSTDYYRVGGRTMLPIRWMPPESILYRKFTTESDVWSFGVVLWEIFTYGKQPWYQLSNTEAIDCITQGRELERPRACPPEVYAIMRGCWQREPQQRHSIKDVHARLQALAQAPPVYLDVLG

CCOc1ccc(Nc2ccc(C(=O)c3c[nH]c4ncnc(OC)c34)c(F)n2)cn1 [Compound P-4024, [6-(6-Ethoxy-pyridin-3-ylamino)-2-fluoro-pyridin-3-yl]-(4-methoxy-7H-pyrrolo[2,3-d]pyrimidin-5-yl)-methanone]
IC50 [1]: < 0.1 µM
IC50 [2]: < 0.1 µM

CCOc1ncnc2[nH]cc(C(=O)c3ccc(Nc4ccc(OC)nc4)nc3F)c12 [Compound P-4025, (4-Ethoxy-7H-pyrrolo[2,3-d]pyrimidin-5-yl)-[2-fluoro-6-(6-methoxy-pyridin-3-ylamino)-pyridin-3-yl]-methanone]
IC50 [1]: < 0.1 µM
IC50 [2]: < 0.1 µM

CCOc1ccc(Nc2ccc(Cc3c[nH]c4ncnc(C5CC5)c34)c(F)n2)cn1 [Compound P-4026, [5-(4-Cyclopropyl-7H-pyrrolo[2,3-d]pyrimidin-5-ylmethyl)-6-fluoro-pyridin-2-yl]-(6-ethoxy-pyridin-3-yl)-amine]
IC50 [1]: < 0.01 µM
IC50 [2]: < 0.01 µM

CCOc1ccc(Nc2ccc(C(=O)c3c[nH]c4ncnc(C5CC5)c34)c(F)n2)cn1 [Compound P-4027, (4-Cyclopropyl-7H-pyrrolo[2,3-d]pyrimidin-5-yl)-[6-(6-ethoxy-pyridin-3-ylamino)-2-fluoro-pyridin-3-yl]-methanone]
IC50 [1]: < 0.01 µM
IC50 [2]: < 0.01 µM

CCc1ccc(Nc2ccc(Cc3c[nH]c4ncnc(C5CC5)c34)c(F)n2)cn1 [Compound P-4028, [5-(4-Cyclopropyl-7H-pyrrolo[2,3-d]pyrimidin-5-ylmethyl)-6-fluoro-pyridin-2-yl]-(6-ethyl-pyridin-3-yl)-amine]
IC50 [1]: < 0.01 µM
IC50 [2]: < 0.01 µM

CCc1ccc(Nc2ccc(C(=O)c3c[nH]c4ncnc(C5CC5)c34)c(F)n2)cn1 [Compound P-4029, (4-Cyclopropyl-7H-pyrrolo[2,3-d]pyrimidin-5-yl)-[6-(6-ethyl-pyridin-3-ylamino)-2-fluoro-pyridin-3-yl]-methanone]
IC50 [1]: < 0.01 µM
IC50 [2]: < 0.01 µM

Cc1ccc(Nc2ccc(Cc3c[nH]c4ncnc(C5CC5)c34)c(F)n2)cn1 [Compound P-4030, [5-(4-Cyclopropyl-7H-pyrrolo[2,3-d]pyrimidin-5-ylmethyl)-6-fluoro-pyridin-2-yl]-(6-methyl-pyridin-3-yl)-amine]
IC50 [1]: < 0.1 µM
IC50 [2]: < 0.1 µM

Cc1ccc(Nc2ccc(C(=O)c3c[nH]c4ncnc(C5CC5)c34)c(F)n2)cn1 [Compound P-4031, (4-Cyclopropyl-7H-pyrrolo[2,3-d]pyrimidin-5-yl)-[2-fluoro-6-(6-methyl-pyridin-3-ylamino)-pyridin-3-yl]-methanone]
IC50 [1]: < 0.1 µM
IC50 [2]: < 0.01 µM

CCOc1ccc(Nc2ccc(C(=O)c3c[nH]c4ncnc(C)c34)c(F)n2)cn1 [Compound P-4032, [6-(6-Ethoxy-pyridin-3-ylamino)-2-fluoro-pyridin-3-yl]-(4-methyl-7H-pyrrolo[2,3-d]pyrimidin-5-yl)-methanone]
IC50 [1]: < 0.1 µM
IC50 [2]: < 0.1 µM

CCn1cc(Nc2ccc(Cc3c[nH]c4ncnc(C5CC5)c34)c(F)n2)cn1 [Compound P-4036, [5-(4-Cyclopropyl-7H-pyrrolo[2,3-d]pyrimidin-5-ylmethyl)-6-fluoro-pyridin-2-yl]-(1-ethyl-1H-pyrazol-4-yl)-amine]
IC50 [1]: < 0.1 µM
IC50 [2]: < 0.1 µM

Cc1cncc(Nc2ccc(Cc3c[nH]c4ncnc(C5CC5)c34)c(F)n2)c1 [Compound P-4038, [5-(4-Cyclopropyl-7H-pyrrolo[2,3-d]pyrimidin-5-ylmethyl)-6-fluoro-pyridin-2-yl]-(5-methyl-pyridin-3-yl)-amine]
IC50 [1]: < 0.1 µM
IC50 [2]: < 0.1 µM

Cc1cncc(Nc2ccc(C(=O)c3c[nH]c4ncnc(C5CC5)c34)c(F)n2)c1 [Compound P-4039, (4-Cyclopropyl-7H-pyrrolo[2,3-d]pyrimidin-5-yl)-[2-fluoro-6-(5-methyl-pyridin-3-ylamino)-pyridin-3-yl]-methanone]
IC50 [1]: < 0.1 µM
IC50 [2]: < 0.1 µM

Fc1nc(NC2CCC(F)(F)CC2)ccc1Cc1c[nH]c2ncnc(NCC(F)(F)F)c12 [Compound P-4128, 5-[[6-[(4,4-difluorocyclohexyl)amino]-2-fluoro-3-pyridyl]methyl]-N-(2,2,2-trifluoroethyl)-7H-pyrrolo[2,3-d]pyrimidin-4-amine]
IC50 [1]: < 1 µM
IC50 [2]: < 0.1 µM

Fc1nc(NC2CCC(F)(F)CC2)ccc1Cc1c[nH]c2ncnc(NC3CC3)c12 [Compound P-4129, N-cyclopropyl-5-[[6-[(4,4-difluorocyclohexyl)amino]-2-fluoro-3-pyridyl]methyl]-7H-pyrrolo[2,3-d]pyrimidin-4-amine]
IC50 [1]: < 1 µM
IC50 [2]: < 0.1 µM

Fc1nc(Nc2ccc(C3CC3)nc2)ccc1Cc1c[nH]c2ncnc(NCC(F)(F)F)c12 [Compound P-4130, 5-[[6-[(6-cyclopropyl-3-pyridyl)amino]-2-fluoro-3-pyridyl]methyl]-N-(2,2,2-trifluoroethyl)-7H-pyrrolo[2,3-d]pyrimidin-4-amine]
IC50 [1]: < 0.01 µM
IC50 [2]: < 0.01 µM
